In PubChem BioAssay AID1259407 (Chemical Carcinogenesis Research Information System (CCRIS), 2018):
Active and inactive are the calls of the source. No rule for the calls is given here.

System: CCRIS mutagenicity, Ames/micronucleus/aberration tests
Experiment: CCRIS mutagenicity studies
[1] = Test System: AMES SALMONELLA TYPHIMURIUM, Strain/Indicator: TA98, Metabolic Activation: NONE, Method: PREINCUBATION
[2] = Test System: AMES SALMONELLA TYPHIMURIUM, Strain/Indicator: TA100, Metabolic Activation: NONE, Method: PREINCUBATION
[3] = Test System: AMES SALMONELLA TYPHIMURIUM, Strain/Indicator: TA1535, Metabolic Activation: NONE, Method: PREINCUBATION
[4] = Test System: AMES SALMONELLA TYPHIMURIUM, Strain/Indicator: TA1537, Metabolic Activation: NONE, Method: PREINCUBATION
[5] = Test System: AMES SALMONELLA TYPHIMURIUM, Strain/Indicator: TA98, Metabolic Activation: NONE, Method: STANDARD PLATE

In the case of `O=C1CCCO1`, the mutagenic call (End Point: IN VITRO CHROMOSOMAL ABERRATIONS, Test System: CHO CELLS, Metabolic Activation: NONE) is reported as “inactive; negative”, the mutagenic call (End Point: IN VITRO CHROMOSOMAL ABERRATIONS, Test System: CHO CELLS, Metabolic Activation: RAT, LIVER, S-9, AROCLOR 1254) is reported as “active; positive” and the mutagenic call (Test System: AMES SALMONELLA TYPHIMURIUM, Strain/Indicator: TA98, Metabolic Activation: HAMSTER, LIVER, S-9, AROCLOR 1254 (10%), Method: PREINCUBATION) is reported as “inactive; negative”. For the same compound, the mutagenic call [1] was “inactive; negative”, the mutagenic call (Test System: AMES SALMONELLA TYPHIMURIUM, Strain/Indicator: TA98, Metabolic Activation: RAT LIVER S-9, PHENOBARBITAL AND BETA-NAPHTHOFLAVONE, Method: PREINCUBATION) was “inactive; negative” and the mutagenic call (Test System: AMES SALMONELLA TYPHIMURIUM, Strain/Indicator: TA98, Metabolic Activation: RAT, LIVER, S-9, AROCLOR 1254 (10%), Method: PREINCUBATION) was “inactive; negative”. For the same compound, the mutagenic call (Test System: AMES SALMONELLA TYPHIMURIUM, Strain/Indicator: TA98, Metabolic Activation: RAT, LIVER, S-9, AROCLOR 1254, Method: PREINCUBATION) was “inactive; negative”, the mutagenic call (Test System: AMES SALMONELLA TYPHIMURIUM, Strain/Indicator: TA100, Metabolic Activation: HAMSTER, LIVER, S-9, AROCLOR 1254 (10%), Method: PREINCUBATION) was “inactive; negative” and the mutagenic call [2] was “inactive; negative”. The mutagenic call (Test System: AMES SALMONELLA TYPHIMURIUM, Strain/Indicator: TA100, Metabolic Activation: RAT LIVER S-9, PHENOBARBITAL AND BETA-NAPHTHOFLAVONE, Method: PREINCUBATION) was “inactive; negative”, the mutagenic call (Test System: AMES SALMONELLA TYPHIMURIUM, Strain/Indicator: TA100, Metabolic Activation: RAT, LIVER, S-9, AROCLOR 1254 (10%), Method: PREINCUBATION) was “inactive; negative” and the mutagenic call (Test System: AMES SALMONELLA TYPHIMURIUM, Strain/Indicator: TA100, Metabolic Activation: RAT, LIVER, S-9, AROCLOR 1254, Method: PREINCUBATION) was “inactive; negative”. The mutagenic call (Test System: AMES SALMONELLA TYPHIMURIUM, Strain/Indicator: TA102, Metabolic Activation: NONE, Method: PREINCUBATION) was “inactive; negative”, the mutagenic call (Test System: AMES SALMONELLA TYPHIMURIUM, Strain/Indicator: TA102, Metabolic Activation: RAT LIVER S-9, PHENOBARBITAL AND BETA-NAPHTHOFLAVONE, Method: PREINCUBATION) was “inactive; negative” and the mutagenic call (Test System: AMES SALMONELLA TYPHIMURIUM, Strain/Indicator: TA102, Metabolic Activation: RAT, LIVER, S-9, AROCLOR 1254, Method: PREINCUBATION) was “inactive; negative”. For the same compound, the mutagenic call (Test System: AMES SALMONELLA TYPHIMURIUM, Strain/Indicator: TA104, Metabolic Activation: NONE, Method: PREINCUBATION) was “inactive; negative”, the mutagenic call (Test System: AMES SALMONELLA TYPHIMURIUM, Strain/Indicator: TA104, Metabolic Activation: RAT LIVER S-9, PHENOBARBITAL AND BETA-NAPHTHOFLAVONE, Method: PREINCUBATION) was “inactive; negative” and the mutagenic call (Test System: AMES SALMONELLA TYPHIMURIUM, Strain/Indicator: TA1535, Metabolic Activation: HAMSTER, LIVER, S-9, AROCLOR 1254 (10%), Method: PREINCUBATION) was “inactive; negative”. The mutagenic call [3] was “inactive; negative”, the mutagenic call (Test System: AMES SALMONELLA TYPHIMURIUM, Strain/Indicator: TA1535, Metabolic Activation: RAT LIVER S-9, PHENOBARBITAL AND BETA-NAPHTHOFLAVONE, Method: PREINCUBATION) was “inactive; negative” and the mutagenic call (Test System: AMES SALMONELLA TYPHIMURIUM, Strain/Indicator: TA1535, Metabolic Activation: RAT, LIVER, S-9, AROCLOR 1254 (10%), Method: PREINCUBATION) was “inactive; negative”. For the same compound, the mutagenic call (Test System: AMES SALMONELLA TYPHIMURIUM, Strain/Indicator: TA1537, Metabolic Activation: HAMSTER, LIVER, S-9, AROCLOR 1254 (10%), Method: PREINCUBATION) was “inactive; negative”, the mutagenic call [4] was “inactive; negative” and the mutagenic call (Test System: AMES SALMONELLA TYPHIMURIUM, Strain/Indicator: TA1537, Metabolic Activation: RAT LIVER S-9, PHENOBARBITAL AND BETA-NAPHTHOFLAVONE, Method: PREINCUBATION) was “inactive; negative”. The mutagenic call (Test System: AMES SALMONELLA TYPHIMURIUM, Strain/Indicator: TA1537, Metabolic Activation: RAT, LIVER, S-9, AROCLOR 1254 (10%), Method: PREINCUBATION) was “inactive; negative”, the mutagenic call (Test System: E.COLI, Strain/Indicator: WP2UVRA, Metabolic Activation: NONE, Method: PREINCUBATION) was “inactive; negative” and the mutagenic call (Test System: E.COLI, Strain/Indicator: WP2UVRA, Metabolic Activation: RAT LIVER S-9, PHENOBARBITAL AND BETA-NAPHTHOFLAVONE, Method: PREINCUBATION) was “inactive; negative”. For the same compound, the mutagenic call (Test System: E.COLI, Strain/Indicator: WP2UVRA\PKM101, Metabolic Activation: NONE, Method: PREINCUBATION) was “inactive; negative” and the mutagenic call (Test System: E.COLI, Strain/Indicator: WP2UVRA\PKM101, Metabolic Activation: RAT LIVER S-9, PHENOBARBITAL AND BETA-NAPHTHOFLAVONE, Method: PREINCUBATION) was “inactive; negative”.
`O=[N+]([O-])c1cc2c3c(c1)CCc1cccc(c1-3)CC2` was tested, and the mutagenic call (Test System: AMES SALMONELLA TYPHIMURIUM, Strain/Indicator: TA98(1,8-DNP6), Metabolic Activation: NONE, Method: STANDARD PLATE) was “active; positive”, the mutagenic call (Test System: AMES SALMONELLA TYPHIMURIUM, Strain/Indicator: TA98(NR), Metabolic Activation: NONE, Method: STANDARD PLATE) was “active; positive” and the mutagenic call [5] was “active; positive”.
`Nc1cc2ccccc2c2ccccc12` was tested, and the mutagenic call (Test System: AMES SALMONELLA TYPHIMURIUM, Strain/Indicator: TA98, Metabolic Activation: RAT, LIVER, S-9, AROCLOR 1254 (2 OR 4%), Method: STANDARD PLATE) was “active; positive”, the mutagenic call (Test System: AMES SALMONELLA TYPHIMURIUM, Strain/Indicator: TA100, Metabolic Activation: RAT, LIVER, S-9, AROCLOR 1254 (4%), Method: STANDARD PLATE) was “active; positive” and the mutagenic call (Test System: AMES SALMONELLA TYPHIMURIUM, Strain/Indicator: TA1535, Metabolic Activation: RAT, LIVER, S-9, AROCLOR 1254 (4%), Method: STANDARD PLATE) was “active; positive”. For the same compound, the mutagenic call (Test System: AMES SALMONELLA TYPHIMURIUM, Strain/Indicator: TA1537, Metabolic Activation: RAT, LIVER, S-9, AROCLOR 1254 (4%), Method: STANDARD PLATE) was “active; positive”.
With `CCCCN(C)N=O` the mutagenic call (Test System: AMES SALMONELLA TYPHIMURIUM, Strain/Indicator: TA100, Metabolic Activation: RAT, LIVER, S-9, KC500 OR PHENOBARBITAL, Method: LIQUID SUSPENSION) was “active; positive”.
`C[C@]1(Cn2ccnn2)[C@H](C(=O)O)N2C(=O)C[C@H]2S1(=O)=O` was tested, and the mutagenic call (Test System: AMES SALMONELLA TYPHIMURIUM, Strain/Indicator: TA98, Metabolic Activation: HAMSTER, LIVER, S-9, AROCLOR 1254, Method: STANDARD PLATE) was “inactive; negative”, the mutagenic call [1] was “inactive; negative” and the mutagenic call [5] was “inactive; negative”. The mutagenic call (Test System: AMES SALMONELLA TYPHIMURIUM, Strain/Indicator: TA98, Metabolic Activation: S-9, Method: PREINCUBATION) was “inactive; negative”, the mutagenic call (Test System: AMES SALMONELLA TYPHIMURIUM, Strain/Indicator: TA100, Metabolic Activation: HAMSTER, LIVER, S-9, AROCLOR 1254, Method: STANDARD PLATE) was “inactive; negative” and the mutagenic call [2] was “inactive; negative”. The mutagenic call (Test System: AMES SALMONELLA TYPHIMURIUM, Strain/Indicator: TA100, Metabolic Activation: NONE, Method: STANDARD PLATE) was “inactive; negative”, the mutagenic call (Test System: AMES SALMONELLA TYPHIMURIUM, Strain/Indicator: TA100, Metabolic Activation: S-9, Method: PREINCUBATION) was “inactive; negative” and the mutagenic call (Test System: AMES SALMONELLA TYPHIMURIUM, Strain/Indicator: TA102, Metabolic Activation: HAMSTER, LIVER, S-9, AROCLOR 1254, Method: STANDARD PLATE) was “inactive; negative”. For the same compound, the mutagenic call (Test System: AMES SALMONELLA TYPHIMURIUM, Strain/Indicator: TA102, Metabolic Activation: NONE, Method: STANDARD PLATE) was “inactive; negative”, the mutagenic call [3] was “inactive; negative” and the mutagenic call (Test System: AMES SALMONELLA TYPHIMURIUM, Strain/Indicator: TA1535, Metabolic Activation: S-9, Method: PREINCUBATION) was “inactive; negative”. For the same compound, the mutagenic call [4] was “inactive; negative”, the mutagenic call (Test System: AMES SALMONELLA TYPHIMURIUM, Strain/Indicator: TA1537, Metabolic Activation: S-9, Method: PREINCUBATION) was “inactive; negative” and the mutagenic call (Test System: E. COLI, Strain/Indicator: WP2 UVRA, Metabolic Activation: NONE, Method: PREINCUBATION) was “inactive; negative”. The mutagenic call (Test System: E. COLI, Strain/Indicator: WP2 UVRA, Metabolic Activation: S-9, Method: PREINCUBATION) was “inactive; negative”.
